Reference: US4097596A, “Inhalation therapy for relieving bronchial spasm using quaternary salts of promethazine” (American Home Products Corporation, priority 1976, dated 1978)
Several values for one entry are separate records, joined by “and”; a condition that tells them apart may be missing. Equal entries are not always repeated. Structures can show the parent of a compound that is named as a salt. Where two headings read alike, the source gives them in different places.

What was measured:
histamine = assay: Inhibition of histamine-induced bronchoconstriction by aerosol, anesthetized guinea pigs; format: in vivo
Method: (§1) Anesthetized (Pentobarbitol-urethane) guinea pigs were artificially respired at a constant positive air pressure (Starling miniature pump) and changes in tidal air during inspiration were recorded, according to the method of Rosenthale et al., Int. Arch. Pharmacol., 172, 91 (1968). The bronchoconstrictor agents acetylcholine and histamine were administered intravenously at doses of 1 to 30 μg/kg. depending on each animal's sensitivity to these compounds, and control responses to acetylcholine and histamine were thus established. Bronchoconstrictor agents raise the resistance of the lungs to inflation thereby decreasing the tidal air flow. A solution of the test compound was then administered by aerosol, in physiological saline or distilled water, and the animals were then challenged again with acetylcholine or histamine and the degree of inhibition of bronchoconstriction by the test compound was thus determined.

acetylcholine = assay: Inhibition of acetylcholine-induced bronchoconstriction by aerosol, anesthetized guinea pigs; format: in vivo
Method: as §1

smooth muscle = settings: cited from earlier work
[1] = cited from earlier work
[2] = system: cholinergic-induced bronchoconstriction; assay: Effect of drugs on cholinergic-induced bronchoconstriction in the cat (aerosol); format: in vivo; settings: as cation, mean ± S.E.
Method: Cats of either sex were anesthetized and respiration was arrested by the administration of an intravenous infusion of 1 mg/ml/min of succinylcholine chloride. The animals were artificially respired with a Harvard pump. A neostigmine methylsulfate solution (0.1 mg/ml) was infused intravenously at a rate of 1 ml/min until maximal or complete bronchoconstriction occurred, but the experiment was not begun until a stable state was attained. The respiratory flow was measured with a Fleisch pneumotachograph and a differential pressure transducer. Transpulmonary pressure was measured with a differential pressure transducer bridged between the trachea and the intrapleural space. Pulmonary airway resistance and compliance was measured by a modification of the Mead & Whittenberger electronic subtraction method using the Hewlett-Packard respiratory pre-amplifier or the isovolumetric method using the Buxco Pulmonary mechanics computer [Rosenthale et al., J. Pharmacol. Exp. Ther., 178, 541, (1971)].
Drugs were administered as cation as an aerosol by means of a Monaghan ultrasonic nebulizer. The dosage was varied by adjusting the concentration of the solution. Activity was measured by the ability of the drug to reverse the increased airway resistance and decreased compliance characteristic of cholinergic stimulation induced by succinylcholine and neostigmine.

[3] = 15.0 μg as cation, physiological saline
[4] = 15.0 μg as cation, distilled water
[5] = 0.15 μg as cation, distilled water
[6] = 1.5 μg as cation, distilled water
[7] = 0.1 μg, listed as Promethazine methyl iodide
[8] = 1.0 μg, listed as Promethazine methyl iodide
[9] = 10.0 μg, listed as Promethazine methyl iodide
[10] = 100.0 μg, listed as Promethazine methyl iodide
[11] = 1.5 μg as cation, physiological saline
[12] = 0.1 μg, listed as Promethazine methyl chloride
[13] = 1.0 μg, listed as Promethazine methyl chloride
[14] = 10.0 μg, listed as Promethazine methyl chloride
[15] = 100.0 μg, listed as Promethazine methyl chloride

CC(CN1c2ccccc2Sc2ccccc21)[N+](C)(C)C (stereo not drawn) [CH"3 / I, l-Trimethyl[1-Methyl-2-(Phenothiazine-10-yl)Ethyl]Ammonium Iodide]
Mean % Inhibition (±S.E.) vs. Histamine (histamine; [3]): 95 (4.66) % | Mean % Inhibition (±S.E.) vs. Acetylcholine (acetylcholine; [3]): 81%

CC(CN1c2ccccc2Sc2ccccc21)[N+](C)(C)C (racemic) [CH3 / CH3 SO4, dl-Trimethyl[1-Methyl-2-(Phenothiazine-10-yl)Ethyl]Ammonium Methyl Sulfate]
Mean % Inhibition (±S.E.) vs. Histamine (histamine; [3]): 98% | Mean % Inhibition (±S.E.) vs. Acetylcholine (acetylcholine; [3]): 86%

CC[N+](C)(C)C(C)CN1c2ccccc2Sc2ccccc21 (racemic) [C2 H 5 / I, dl-N-Ethyl-N,N,α-Trimethyl-10H-Phenothiazine-10-Ethanaminium Iodide]
Mean % Inhibition (±S.E.) vs. Histamine (histamine; [4]): 78.67 (8.74) % | Mean % Inhibition (±S.E.) vs. Acetylcholine (acetylcholine; [5]): 20.0 (7.70) % | Mean % Inhibition (±S.E.) vs. Acetylcholine (acetylcholine; [6]): 62.75 (10.63) % | Mean % Inhibition (±S.E.) vs. Acetylcholine (acetylcholine; [4]): 98.66 (1.33) %

CN[C@@H](C)[C@H](O)c1ccccc1 [ephedrine]
smooth muscle relaxation (smooth muscle): smooth muscle relaxant | bronchodilator activity ([1]; aerosol): not by aerosol | bronchodilator activity ([1]; oral): orally active bronchodilator

CCC[N+](C)(C)C(C)CN1c2ccccc2Sc2ccccc21 (racemic) [n-C3 H7 / I, dl-N,N,α-Trimethyl-N-n-Propyl-10H-Phenothiazine-10-Ethanaminium Iodide]
Mean % Inhibition (±S.E.) vs. Histamine (histamine; [4]): 68.0 (8.14) % | Mean % Inhibition (±S.E.) vs. Acetylcholine (acetylcholine; [5]): 5.5 (3.20) % | Mean % Inhibition (±S.E.) vs. Acetylcholine (acetylcholine; [6]): 43.75 (6.51) % | Mean % Inhibition (±S.E.) vs. Acetylcholine (acetylcholine; [4]): 84.0 (6.56) %

Cn1c(=O)c2[nH]cnc2n(C)c1=O [aminophylline]
bronchial smooth muscle relaxation (smooth muscle; in vitro or by injection in vivo): can relax bronchial smooth muscle in vitro or by injection in vivo | bronchodilator activity ([1]; aerosol): inactive as a bronchodilator aerosol

CC(CN1c2ccccc2Sc2ccccc21)[N+](C)(C)C (racemic) [CH3 / NO3, dl-Trimethyl[1-Methyl-2-(Phenothiazin-10-yl)Ethyl]Ammonium Nitrate]
Mean % Inhibition (±S.E.) vs. Acetylcholine (acetylcholine; [5]): 12.0 (6.26) % | Mean % Inhibition (±S.E.) vs. Acetylcholine (acetylcholine; [6]): 43.5 (10.33) % | Mean % Inhibition (±S.E.) vs. Acetylcholine (acetylcholine; [4]): 100 (0) %

CC(CN1c2ccccc2Sc2ccccc21)[N+](C)(C)C (racemic) [CH3 / Br, dl-Trimethyl[1-Methyl-2-(Phenothiazin-10-yl)Ethyl]Ammonium Bromide]
Mean % Inhibition (±S.E.) vs. Acetylcholine (acetylcholine; [5]): 0% | Mean % Inhibition (±S.E.) vs. Acetylcholine (acetylcholine; [6]): 38.75 (9.26) % | Mean % Inhibition (±S.E.) vs. Acetylcholine (acetylcholine; [4]): 99.0 (1.0) %

CC(CN1c2ccccc2Sc2ccccc21)[N+](C)(C)C (racemic) [CH3 / I, dl-trimethyl[1-methyl-2-(phenothiazin-10-yl)ethyl]ammonium iodide]
Pulmonary Compliance % Protection [2, 7]: 5.8±3.6% | Pulmonary Resistance % Protection [2, 7]: 14.3±1.1% | Duration 50% (time to return to 50% of control constricted state) ([2]; 0.1 μg, methyl chloride done in 3 cats, listed as Promethazine methyl iodide): 6.7 ± 3.2 min | Duration 50% (time to return to 50% of control constricted state) [2, 8]: 11.3 ± 2.0 min | Pulmonary Compliance % Protection [2, 8]: 3.7± .52% | Pulmonary Resistance % Protection [2, 8]: 39.4±2.1% | Duration 50% (time to return to 50% of control constricted state) [2, 9]: 21.2 ± 6.8 min | Pulmonary Compliance % Protection [2, 9]: 15.5±6.0% | Pulmonary Resistance % Protection [2, 9]: 48.5±3.3% | Duration 50% (time to return to 50% of control constricted state) [2, 10]: 46.1 ± 9.7 min | Pulmonary Compliance % Protection [2, 10]: 26.4±4.1% | Pulmonary Resistance % Protection [2, 10]: 78.1±4.4% | Mean % Inhibition (±S.E.) vs. Histamine (histamine; 0.15 μg as cation, physiological saline): 15.33 (6.96) % | Mean % Inhibition (±S.E.) vs. Histamine (histamine; [11]): 49.0 (11.14) % | Mean % Inhibition (±S.E.) vs. Histamine (histamine; [4]): 98.0 (1.0) % | Mean % Inhibition (±S.E.) vs. Histamine (histamine; [3]): 97.5% and 98.66 (1.33) % | Mean % Inhibition (±S.E.) vs. Acetylcholine (acetylcholine; [5]): 20.0 (13.38) % | Mean % Inhibition (±S.E.) vs. Acetylcholine (acetylcholine; [6]): 47.0 (7.59) % | Mean % Inhibition (±S.E.) vs. Acetylcholine (acetylcholine; [11]): 62.38 (4.67) % and 62.75 (11.89) % | Mean % Inhibition (±S.E.) vs. Acetylcholine (acetylcholine; [4]): 98.66 (1.33) % | Mean % Inhibition (±S.E.) vs. Acetylcholine (acetylcholine; [3]): 99.0 (1.0) % and 99.3 (0.67) %

CC(CN1c2ccccc2Sc2ccccc21)[N+](C)(C)C (racemic) [CH3 / Cl, dl-Trimethyl[1-Methyl-2-(Phenothiazin-10-yl)Ethyl]Ammonium Chloride]
Pulmonary Compliance % Protection [2, 12]: 6.8±4.1% | Pulmonary Resistance % Protection [2, 12]: 8.8±7.7% | Duration 50% (time to return to 50% of control constricted state) ([2]; 0.1 μg, methyl chloride done in 3 cats, listed as Promethazine methyl chloride): 2.7 ± 1.5 min | Duration 50% (time to return to 50% of control constricted state) [2, 13]: > 10 min | Pulmonary Compliance % Protection [2, 13]: 7.8±4.1% | Pulmonary Resistance % Protection [2, 13]: 17.2±2.8% | Duration 50% (time to return to 50% of control constricted state) [2, 14]: 21.0 ± 4.0 min | Pulmonary Compliance % Protection [2, 14]: 71.4±51.1% | Pulmonary Resistance % Protection [2, 14]: 50.0±4.6% | Duration 50% (time to return to 50% of control constricted state) [2, 15]: > 60 min | Pulmonary Compliance % Protection [2, 15]: 60.8±25.7% | Pulmonary Resistance % Protection [2, 15]: 72.8±2.1% | Mean % Inhibition (±S.E.) vs. Histamine (histamine; [4]): 98.2 (1.8) % | Mean % Inhibition (±S.E.) vs. Acetylcholine (acetylcholine; [6]): 24.25 (10.21) % and 26.67 (6.77) % | Mean % Inhibition (±S.E.) vs. Acetylcholine (acetylcholine; [4]): 86.3 (10.37) % and 100 (0) %

CNC[C@H](O)c1ccc(O)c(O)c1 [epinephrine]
smooth muscle relaxation (smooth muscle): smooth muscle relaxant

CCCC[N+](C)(C)C(C)CN1c2ccccc2Sc2ccccc21 (racemic) [n-C4 H9 / I, dl-N-n-Butyl,N,N,α-Trimethyl-10H-Phenothiazine-10-Ethanaminium Iodide]
Mean % Inhibition (±S.E.) vs. Histamine (histamine; [4]): 66.33 (2.96) % | Mean % Inhibition (±S.E.) vs. Acetylcholine (acetylcholine; [5]): 0% | Mean % Inhibition (±S.E.) vs. Acetylcholine (acetylcholine; [6]): 39.25 (2.53) % | Mean % Inhibition (±S.E.) vs. Acetylcholine (acetylcholine; [4]): 52.0 (6.35) %

CC(CN1c2ccccc2Sc2ccccc21)[N+](C)(C)C (stereo not drawn) [CH'3 / I, d-trimethyl[1-methyl-2-(phenothiazin-10-yl)ethyl]ammonium iodide]
Mean % Inhibition (±S.E.) vs. Histamine (histamine; [3]): 82% | Mean % Inhibition (±S.E.) vs. Acetylcholine (acetylcholine; [3]): 97%
